# Laboratory results: article PMC9181543, “Lysosomal Exocytosis of Olivacine on the Way to Explain Drug Resistance in Cancer Cells” (International Journal of Molecular Sciences, 2022)
# Legend:
# A549 cells [1] = assay: Proton pump blocking test (omeprazole) for lysosomal exocytosis; format: cell-based, human; settings: 200 µM for 1 h before test compounds
# Procedure: To assess whether the exocytosis of olivacine and ellipticine from cancer cells is lysosomal, a proton pump blocking test was performed. Omeprazole was added into A549 cells at a concentration of 200 µM for 1 h. The cell culture was then washed twice with PBS, and the cells were treated with tested compounds. The cell culture was assessed using an Evos FL microscope. The lysosomes were stained using LysoTracker™ Deep Red kit (L12492; Invitrogen). Cultured cells were evaluated using an Evos FL microscope, taking photos every 15 min. After treatment with olivacine or olivacine and omeprazole, analysis of mean cell fluorescence was performed from five independent replicates. In addition, 14 pictures were taken from each replicate, and 100 cells were analyzed by photomicrography using the ImageJ platform.
# LoVo cells [2] = assay: MTT assay (mitochondrial activity), LoVo; format: cell-based; settings: Homo sapiens
# Procedure: (§1) The anticancer activity of tested compounds was assessed on five human cell lines selected from the panel of tumor cell lines recommended by the National Cancer Institute: A495 (lung carcinoma), CCRF/CEM (acute lymphoblastic leukemia), LoVo and LoVo/DX (two types of colorectal: non-resistant and resistant to doxorubicin), and MCF-7 (breast adenocarcinoma). In addition, the NHDF cell line (normal human dermal fibroblasts) was used to estimate cytotoxicity to noncancer cells. The A549, CCRF/CEM, LoVo, LoVo/DX, and MCF-7 cells were obtained from ECACC, and NHDF cells from LONZA, Belgium. The A549 and MCF-7 cells were grown in EMEM medium, CCRF/CEM cells in RPMI-1640, LoVo and LoVo/DX cells in DMEM/F-12, and NHDF cells in DMEM without phenol red. The cells were seeded in […] in the biological assay, as recommended by the National Cancer Institute. All culture media were supplemented with L-glutamine, penicillin, streptomycin, and 10% fetal bovine serum (FBS). Cells were incubated at 37 °C and 5% CO2. An assessment of the mitochondrial cell activity after applying tested compounds was carried out using the test MTT assay, recommended in the ISO 10993-5:2009 standard. As in the SRB assay, the cells were exposed to tested compounds after 24 h of initial incubation in 96-well plates. The MTT solution (1 mg/mL) was added to each well, and cells were incubated for 2 h. Finally, the supernatant was removed, and the formazan crystals were dissolved in isopropanol. After 30 min, absorbance at 570 nm in Victor2 microplate reader (PerkinElmer). Cell viability was determined as the IC50 ratio, i.e., the concentration of the compound in which the viability was reduced by half compared with the control.
# CCRF/CEM cells [3] = assay: SRB assay (total protein content), CCRF/CEM; format: cell-based; settings: Homo sapiens, 48 h incubation
# Procedure: (§2) The anticancer activity of tested compounds was assessed on five human cell lines selected from the panel of tumor cell lines recommended by the National Cancer Institute: A495 (lung carcinoma), CCRF/CEM (acute lymphoblastic leukemia), LoVo and LoVo/DX (two types of colorectal: non-resistant and resistant to doxorubicin), and MCF-7 (breast adenocarcinoma). In addition, the NHDF cell line (normal human dermal fibroblasts) was used to estimate cytotoxicity to noncancer cells. The A549, CCRF/CEM, LoVo, LoVo/DX, and MCF-7 cells were obtained from ECACC, and NHDF cells from LONZA, Belgium. The A549 and MCF-7 cells were grown in EMEM medium, CCRF/CEM cells in RPMI-1640, LoVo and LoVo/DX cells in DMEM/F-12, and NHDF cells in DMEM without phenol red. The cells were seeded in […] in the biological assay, as recommended by the National Cancer Institute. All culture media were supplemented with L-glutamine, penicillin, streptomycin, and 10% fetal bovine serum (FBS). Cells were incubated at 37 °C and 5% CO2. One of the most popular in vitro tests to evaluate the activity of compounds with potential antitumor activity is the SRB assay. The sulforhodamine B dye is used, which binds to the protein at the appropriate pH. The assay allows for assessing cell mass and, indirectly, their proliferation. The advantage of the assay is that it measures cellular protein content and not the activity of any enzymes. The SRB assay was carried out according to the National Cancer Institute procedure. Cells were incubated in a culture medium for 24 h in 96-well plates. After 24 h, the control plate for each cell line was fixed with TCA to evaluate cell culture before treatment with tested compounds. […] Cell cultures were then fixed by adding 50% TCA at 4 °C for 1 h. After removing the supernatant, the plates were washed with water and dried. […] Growth inhibition was calculated following the NCI guidelines and expressed as the GI50 ratio, i.e., the concentration of the compound in which the amount of protein was reduced by half compared with the control.
# NHDF cells [4] = assay: MTT assay (mitochondrial activity), NHDF; format: cell-based; settings: Homo sapiens, NHDF normal cells
# Procedure: as §1
# MCF-7 cells [5] = assay: MTT assay (mitochondrial activity), MCF-7; format: cell-based; settings: Homo sapiens, MCF7
# Procedure: as §1
# NHDF cells [6] = assay: SRB assay (total protein content), NHDF; format: cell-based; settings: Homo sapiens, NHDF normal cells, 48 h incubation
# Procedure: as §2
# LoVo/DX cells [7] = assay: SRB assay (total protein content), LoVo/DX; format: cell-based; settings: Homo sapiens, LoVo/DX cells (doxorubicin-resistant), 48 h incubation
# Procedure: as §2
# CCRF/CEM cells [8] = assay: MTT assay (mitochondrial activity), CCRF/CEM; format: cell-based; settings: Homo sapiens
# Procedure: as §1
# MCF-7 cells [9] = assay: SRB assay (total protein content), MCF-7; format: cell-based; settings: Homo sapiens, MCF7, 48 h incubation
# Procedure: as §2
# LoVo/DX cells [10] = assay: MTT assay (mitochondrial activity), LoVo/DX; format: cell-based; settings: Homo sapiens, LoVo/DX cells (doxorubicin-resistant)
# Procedure: as §1
# A549 cells [11] = assay: MTT assay (mitochondrial activity), A549; format: cell-based; settings: Homo sapiens
# Procedure: as §1
# LoVo cells [12] = assay: SRB assay (total protein content), LoVo; format: cell-based; settings: Homo sapiens, 48 h incubation
# Procedure: as §2
SMILES,effect on exocytosis of olivacine and ellipticine (A549 cells [1]),IC50 (LoVo cells [2]) [µM],GI50 (CCRF/CEM cells [3]) [µM],IC50 (NHDF cells [4]) [µM],IC50 (MCF-7 cells [5]) [µM],GI50 (NHDF cells [6]) [µM],GI50 (LoVo/DX cells [7]) [µM],IC50 (CCRF/CEM cells [8]) [µM],GI50 (MCF-7 cells [9]) [µM],IC50 (LoVo/DX cells [10]) [µM],IC50 (A549 cells [11]) [µM],GI50 (LoVo cells [12]) [µM]
COc1ccc2[nH]c([S+]([O-])Cc3ncc(C)c(OC)c3C)nc2c1 (stereo not drawn) [Omeprazole],protect against exocytosis,,,,,,,,,,,
COc1cccc2c1C(=O)c1c(O)c3c(c(O)c1C2=O)C[C@@](O)(C(=O)CO)C[C@@H]3O[C@H]1C[C@H](N)[C@H](O)[C@H](C)O1 [Doxorubicin],,10.2 ± 1.27,0.74 ± 0.02,18.2 ± 4.46,4.33 ± 0.55,13.7 ± 5.29,14.1 ± 3.42,1.03 ± 0.02,1.44 ± 0.23,86.4 ± 25.4,13.8 ± 1.03,1.62 ± 0.45
